Patent US7125995B2, “Substituted amidoalkyl uracils and their use as inhibitors of the poly(adp-ribose) synthetase (PARS)” (Bayer Aktiengesellschaft, priority 2000, dated 2006)

biological target: T1, human PARS enzyme (Homo sapiens, UniProt P09874); assay: PARS inhibition test (in vitro); assay type: biochemical; conditions: recombinant human PARS, [14C]-NAD+, 10 min room temperature
T1 construct: made in house; host or cells: baculovirus expression system (Bac-To-Bac, Life Technologies)
Method: To this end, recombinantly expressed (Bac-To-Bac, Baculo virus expression system; Instruction Manual; Life Technologies) human PARS enzyme is activated in a buffer which contains radioactively labelled [^14C]—NAD^+. The poly(ADP-ribose) units that are synthesized are precipitated using trichloroacetic acid, and the proportion of labelled protein is determined by scintillation measurements. Incubation of PARS with inhibitors leads to a decrease in the proportion of labelled protein and thus to a reduced radioactivity.
• Buffer: 100 mM 2-amino-2-hydroxymethyl-1,3-propanediol (tris)-HCl, pH 7.4 • 10 mM MgCl2 • 1 mM dithiothreitol (DTT) • Tris-HCl and MgCl2 are dissolved in water, DTT is added from an aqueous 100 mM stock solution (stored at −20° C.) and the pH is adjusted with concentrated HCl to 7.4. • DNA: 1 mg/ml of calf thymus DNA • 1 mg/ml of calf thymus DNA (from Sigma) is dissolved in water and sonicated to induce strand breaks. 500 μl aliquots were stored at −20° C. • Histones: 10 mg/ml of type IIA histones, calf thymus • 10 mg/ml of lyophilized histones (from Sigma) are dissolved in water. • 500 μl aliquots are stored at −20° C. • NAD^+ Mix: 2 mM NAD^+ in buffer, • NAD^+ (from Sigma) solutions are prepared freshly before each test. • In each case 3 μl of labelled [^14C]—NAD^+ (2.8 kBq, from Amersham) are added to 7 μl of cold NAD^+ solution. • Trichloroacetic acid (TCA): TCA is stored at 4° C. as a 10% strength by weight solution. • PARS: Human PARS protein is expressed recombinantly in the baculovirus system (Bac-To-Bac, Baculo virus expression system; Instruction Manual; Life Technologies) and purified. 500 μl aliquots are stored at −80° C. Methods
The compounds to be tested are dissolved in DMSO (dimethyl sulphoxide) at a concentration of 10 mM. The assay is carried out in deep 96-well plates. […] The mixture is incubated at room temperature for 10 min, and 1 ml of ice-cold TCA solution is then added, and the precipitated labelled proteins are sucked onto a filter paper (printed filter mat A; from Wallac) using a harvester (from Scatron). The filter is dried, sealed together with a scintillation sheet (Multilex A; from Wallac) and measured in a β counter for 1 min per well.
In addition to the substances described in this application, the known PARS inhibitor 1,5-dihydroxyisoquinoline (DHCH) is tested as reference substance. The results of the test are stated as IC50 values for the inhibition of PARS.

T1 sequence (P09874 whole entry): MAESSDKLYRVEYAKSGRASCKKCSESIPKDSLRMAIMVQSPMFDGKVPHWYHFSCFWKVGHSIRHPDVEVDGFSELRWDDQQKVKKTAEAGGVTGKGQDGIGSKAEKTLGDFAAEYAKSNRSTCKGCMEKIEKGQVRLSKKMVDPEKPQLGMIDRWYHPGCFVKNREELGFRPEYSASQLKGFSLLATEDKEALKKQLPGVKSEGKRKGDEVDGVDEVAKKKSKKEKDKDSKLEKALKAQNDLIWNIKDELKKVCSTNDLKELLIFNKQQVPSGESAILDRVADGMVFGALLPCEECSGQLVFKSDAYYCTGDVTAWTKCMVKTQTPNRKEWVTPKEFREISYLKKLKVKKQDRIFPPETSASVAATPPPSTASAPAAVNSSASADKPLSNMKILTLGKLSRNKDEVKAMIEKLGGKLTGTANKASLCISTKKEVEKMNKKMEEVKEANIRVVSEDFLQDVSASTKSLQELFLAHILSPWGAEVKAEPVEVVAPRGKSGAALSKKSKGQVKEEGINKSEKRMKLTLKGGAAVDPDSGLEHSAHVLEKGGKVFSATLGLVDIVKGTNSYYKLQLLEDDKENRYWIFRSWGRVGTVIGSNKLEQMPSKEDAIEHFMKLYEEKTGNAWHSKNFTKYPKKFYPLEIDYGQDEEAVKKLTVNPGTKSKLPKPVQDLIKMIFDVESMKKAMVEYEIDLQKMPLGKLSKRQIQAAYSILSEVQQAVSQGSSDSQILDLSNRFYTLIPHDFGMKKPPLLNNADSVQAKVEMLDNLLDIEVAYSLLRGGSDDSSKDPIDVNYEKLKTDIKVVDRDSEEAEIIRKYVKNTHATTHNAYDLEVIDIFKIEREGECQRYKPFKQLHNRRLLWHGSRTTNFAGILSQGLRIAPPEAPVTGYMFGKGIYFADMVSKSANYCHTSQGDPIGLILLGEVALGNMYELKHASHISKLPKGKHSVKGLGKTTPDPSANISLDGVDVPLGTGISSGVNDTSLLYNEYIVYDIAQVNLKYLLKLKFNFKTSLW

Structure (SMILES) | IC50 [nM]
Cc1csc2c(N3CCN(C(=O)CNC(=O)CCn4c5c(c(=O)[nH]c4=O)CSCC5)CC3)ncnc12 [Example 15] | 15
O=C(CCn1c2c(c(=O)[nH]c1=O)CCCC2)NCC(=O)c1ccc(-c2ccncc2)cc1 [Example 7] | 12
O=C(CCn1c2c(c(=O)[nH]c1=O)CSCC2)NCC(=O)c1ccc2ccccc2c1 [Example 6] | 8.5
O=C(CCn1c2c(c(=O)[nH]c1=O)CCCC2)NCC(=O)N1CCN(c2ccccc2C(F)(F)F)CC1 [Example 54] | 80

tested on: MHEC5-T cells; assay: Cell protection assay (in vitro), H2O2-induced cell death, Alamar blue; assay type: cell-based; conditions: 3 mM H2O2, 5 hours, 37° C., 50% of maximum cell protection, 10 μM DHCH defined as 100%, read-out: Cell protection (in vitro) EC50
Method: In accordance with a method described by Bowes [Bowes et al., Br. J. Pharmacol., 124, 1760–1766 (1998)], the ability of PARS inhibitors to protect cells against cell death induced by incubation with H2O2 is examined in a cell protection assay. Incubation of endothelial cells with H2O2 results in the generation of DNA strand breaks which in turn activate PARS, resulting in a drastic energy decrease in the cells and in cell death. Living cells are quantified by a fluorimetric redox indicator (Alamar blue), which is converted in the electron transport system of the mitochondria.
Specifically, 7500 MHEC5-T cells/well (DSM ACC 336; German collection of microorganisms and cell cultures) are sown in 4 replications on a 96-well plate. After 24 hours, the cells are incubated with 3 mM aqueous H2O2 solution and differing concentrations of the substances in the presence of 6% by volume of Alamar blue solution in the medium at 37° C. for 5 hours. The reference substance used is 10 μM 1,5-dihydroxyisoquinoline (DHCH) solution. After the incubation, the fluorescence is measured at an excitation wavelength of 530–560 nm and an emission wavelength of 590 nm. The percentage for the cell protection is calculated as the difference between the living cells treated only with H2O2 and the cells treated with H2O2 and PARS inhibitors. The internal standard used is 10 μM DHCH, which is defined as 100% protection. The results obtained for the other substances are compared to this value.
The EC50 values indicate the concentration at which 50% of maximum cell protection is reached, maximum protection by 10 μM DHCH being defined as 100%.

Structure (SMILES) | EC50 [nM]
Cc1csc2c(N3CCN(C(=O)CNC(=O)CCn4c5c(c(=O)[nH]c4=O)CSCC5)CC3)ncnc12 [Example 15] | 50
O=C(CCn1c2c(c(=O)[nH]c1=O)CCCC2)NCC(=O)c1ccc(-c2ccncc2)cc1 [Example 7] | 90
O=C(CCn1c2c(c(=O)[nH]c1=O)CSCC2)NCC(=O)N1CCN(c2ncc(Br)cn2)CC1 [Example 24] | 20
O=C(CCn1c2c(c(=O)[nH]c1=O)CSCC2)NCC(=O)c1ccc(-c2cnccn2)cc1 [Example 5, 3-(2,4-Dioxo-3,4,7,8-tetrahydro-2H-thiopyrano [4,3-d]pyrimidin-1(5H)-yl)-N-(2-oxo-2-[4-(2-pyrazinyl)phenyl]ethyl)propanecarboxamide] | 70
O=C(CCn1c2c(c(=O)[nH]c1=O)CSCC2)NCC(=O)N1CCN(c2ccccc2)CC1 [Example 30] | 100
O=C(CCn1c2c(c(=O)[nH]c1=O)CSCC2)NCC(=O)c1ccc(-c2ccc3c(c2)OCO3)cc1 [Example 12] | 95
O=C(CCn1c2c(c(=O)[nH]c1=O)CCCC2)NCC(=O)N1CCN(c2ncc(F)cn2)CC1 [Example 40] | 90
O=C(CCn1c2c(c(=O)[nH]c1=O)CCCC2)NCC(=O)N1CCN(c2ccc([N+](=O)[O-])cc2)CC1 [Example 32] | 200

same assay, conditions: 3 mM H2O2, 5 hours, reference substance, read-out: Cell protection EC50 value

Structure (SMILES) | EC50 [nM]
Oc1cccc2c(O)nccc12 [DHCH, 1,5-dihydroxyisoquinoline, reference compound] | 2000
